Source: ChEMBL document CHEMBL4402591, “Imidazo[1,2-a]pyridine Derivatives as Aldehyde Dehydrogenase Inhibitors: Novel Chemotypes to Target Glioblastoma Stem Cells” (J Med Chem, 2020)

Legend:
[1] = biological target: T1, Retinaldehyde dehydrogenase 3 (Homo sapiens, UniProt P47895); assay: Inhibition of recombinant human 6His-tagged ALDH1A3 expressed in Escherichia coli BL21(DE3) using acetaldehyde as substrate preincubated for 5 mins followed by substrate addition by spectrometric assay
T1 sequence (P47895 whole entry): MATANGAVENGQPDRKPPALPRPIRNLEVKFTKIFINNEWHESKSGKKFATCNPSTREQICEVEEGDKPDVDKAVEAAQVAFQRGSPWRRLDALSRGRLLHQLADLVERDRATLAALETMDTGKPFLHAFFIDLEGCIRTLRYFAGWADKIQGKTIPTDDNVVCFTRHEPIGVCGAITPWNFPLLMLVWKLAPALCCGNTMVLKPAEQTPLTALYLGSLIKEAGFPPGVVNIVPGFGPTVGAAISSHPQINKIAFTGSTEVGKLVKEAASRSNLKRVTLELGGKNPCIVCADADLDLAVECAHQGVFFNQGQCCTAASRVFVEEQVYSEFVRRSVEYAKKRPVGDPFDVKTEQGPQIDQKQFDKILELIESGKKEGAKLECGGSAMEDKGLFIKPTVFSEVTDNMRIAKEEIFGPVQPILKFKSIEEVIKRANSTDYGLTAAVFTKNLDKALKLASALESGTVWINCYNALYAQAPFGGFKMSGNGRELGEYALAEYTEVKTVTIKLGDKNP

[2] = Antiproliferative activity against human PN157 cells measured after 72 hrs by alamar blue assay; type: functional, cell-based
[3] = Antiproliferative activity against human MES267 cells measured after 72 hrs by alamar blue assay; type: functional, cell-based
[4] = Antiproliferative activity against human MES374 cells measured after 72 hrs by alamar blue assay; type: functional, cell-based
[5] = biological target: T2, Aldehyde dehydrogenase 1A1 (Homo sapiens, UniProt P00352); assay: Inhibition of recombinant human 6His-tagged ALDH1A1 expressed in Escherichia coli BL21(DE3) using acetaldehyde as substrate preincubated for 5 mins followed by substrate addition by spectrometric assay
T2 sequence (P00352 whole entry): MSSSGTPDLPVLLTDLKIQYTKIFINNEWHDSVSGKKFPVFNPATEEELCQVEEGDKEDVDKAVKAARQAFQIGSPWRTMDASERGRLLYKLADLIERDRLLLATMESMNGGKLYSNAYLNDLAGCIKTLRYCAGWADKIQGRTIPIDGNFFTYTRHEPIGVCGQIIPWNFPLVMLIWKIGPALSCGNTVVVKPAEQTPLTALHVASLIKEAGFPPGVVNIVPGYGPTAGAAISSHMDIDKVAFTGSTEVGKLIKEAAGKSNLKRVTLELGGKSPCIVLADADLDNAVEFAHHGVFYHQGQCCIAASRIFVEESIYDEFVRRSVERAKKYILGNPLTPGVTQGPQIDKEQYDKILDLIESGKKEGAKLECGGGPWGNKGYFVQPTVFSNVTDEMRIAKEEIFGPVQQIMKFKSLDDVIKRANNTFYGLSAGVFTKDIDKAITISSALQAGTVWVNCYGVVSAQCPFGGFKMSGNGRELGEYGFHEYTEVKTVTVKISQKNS

[6] = biological target: T1, Retinaldehyde dehydrogenase 3; assay: Competitive inhibition of recombinant human 6His-tagged ALDH1A3 expressed in Escherichia coli BL21(DE3) using varying level of acetaldehyde as substrate preincubated for 5 mins followed by substrate addition by Michaelis-Menten plot analysis
Retinal dehydrogenase 2 = biological target: T3, Retinal dehydrogenase 2 (Homo sapiens, UniProt O94788); assay: Inhibition of recombinant human 6His-tagged ALDH1A2 expressed in Escherichia coli BL21(DE3) using acetaldehyde as substrate preincubated for 5 mins followed by substrate addition by spectrometric assay
T3 sequence (O94788 whole entry): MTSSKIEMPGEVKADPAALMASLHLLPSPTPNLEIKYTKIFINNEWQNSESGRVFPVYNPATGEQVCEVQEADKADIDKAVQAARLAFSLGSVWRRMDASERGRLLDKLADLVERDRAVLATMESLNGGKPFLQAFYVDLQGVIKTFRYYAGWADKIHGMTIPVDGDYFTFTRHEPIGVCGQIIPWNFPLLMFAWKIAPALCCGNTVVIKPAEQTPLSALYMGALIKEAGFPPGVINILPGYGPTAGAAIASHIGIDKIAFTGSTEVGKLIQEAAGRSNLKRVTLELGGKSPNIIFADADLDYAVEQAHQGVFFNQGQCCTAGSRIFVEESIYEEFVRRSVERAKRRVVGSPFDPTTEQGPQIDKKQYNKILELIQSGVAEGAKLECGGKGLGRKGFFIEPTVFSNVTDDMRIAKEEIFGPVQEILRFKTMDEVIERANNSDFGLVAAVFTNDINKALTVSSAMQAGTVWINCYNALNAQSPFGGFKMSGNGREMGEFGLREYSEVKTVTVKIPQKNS

SMILES	IC50 [1]	IC50 [5]	Ki [6]	IC50 (Retinal dehydrogenase 2)	IC50 [2]	IC50 [3]	IC50 [4]
COc1cccc(-c2cn3cc(-c4ccc(F)cc4)ccc3n2)c1	21.2 µM	–	–	–	1.51 µM	0.35 µM	–
COc1ccc(-c2ccc3nc(-c4ccccc4)cn3c2)cc1	17.8 µM	–	–	–	2.66 µM	0.66 µM	–
Fc1ccc(-c2ccc3nc(-c4ccccc4)cn3c2)cc1	22.8 µM	–	–	–	0.0252 µM	0.0634 µM	0.00258 nM
COc1ccc(-c2cn3cc(-c4cc(OC)cc(OC)c4)ccc3n2)cc1	3.5 µM	198 µM	–	–	–	–	–
Clc1ccc(-c2ccc3nc(-c4ccc(Br)cc4)cn3c2)cc1	–	17.3 µM	–	–	–	–	–
Cc1ccc(-c2cn3cc(-c4ccc(F)cc4)ccc3n2)cc1	92.9 µM	–	–	–	–	–	–
Clc1ccc(-c2ccc3nc(-c4ccccc4)cn3c2)cc1	45.8 µM	68.8 µM	–	–	0.0531 µM	0.0215 µM	0.0196 nM
CSc1ccc(-c2ccc3nc(-c4ccccc4)cn3c2)cc1	27.1 µM	–	–	–	–	–	–
COC(=O)c1ccc(-c2ccc3nc(-c4ccccc4)cn3c2)cc1	27.4 µM	96.9 µM	–	–	0.822 µM	0.823 µM	–

Second part, led by results:

IC50 [1]	IC50 [5]	Ki [6]	IC50 (Retinal dehydrogenase 2)	SMILES	IC50 [2]	IC50 [3]	IC50 [4]
11.3 µM	–	–	–	Cc1ccc(-c2cn3cc(-c4ccccc4)ccc3n2)cc1	–	–	–
11.4 µM	–	–	–	COc1ccc(-c2ccc3nc(-c4ccc(OC)cc4)cn3c2)cc1	–	–	–
6.4 µM	–	–	–	COc1cccc(-c2cn3cc(-c4ccc(Cl)cc4)ccc3n2)c1	0.0296 µM	0.0712 µM	13.5 nM
8.3 µM	–	–	–	COc1ccc(-c2cn3cc(-c4ccc(OC)c(OC)c4)ccc3n2)cc1	–	–	–
4.7 µM	19.6 µM	0.54 µM	54.6 µM	c1ccc(-c2ccc3nc(-c4ccccc4)cn3c2)cc1	0.151 µM	0.0469 µM	2.74 nM
5.3 µM	–	–	–	N#Cc1cccc(-c2ccc3nc(-c4ccccc4)cn3c2)c1	–	–	–
5.2 µM	–	–	–	N#Cc1ccc(-c2ccc3nc(-c4ccccc4)cn3c2)cc1	–	–	–
